Data reported in patent US10064913B2, “Immunotherapy against several tumors including gastrointestinal and gastric cancer” (IMMATICS BIOTECHNOLOGIES GMBH, priority 2010, dated 2018).

Legend:
[1] = system: CD8+ T cells; test: In vitro immunogenicity of HLA-A*2402 restricted TUMAPs (aAPC priming of CD8+ T cells, multimer staining); assay type: cell-based, human; details: HLA-A*2402 peptides, CD8+ T cells of healthy HLA-A*24 donors, three stimulation cycles with pMHC/anti-CD28 beads; for Wells positive/evaluable [%]: at least 48 wells evaluable; for Donors positive/evaluable [%]: at least four donors evaluable
From the text: (§1) In order to perform in vitro stimulations by artificial antigen presenting cells (aAPC) loaded with peptide-MHC complex (pMHC) and anti-CD28 antibody, we first isolated CD8 T cells from fresh HLA-A*24 leukapheresis products or from HLA-A*2 buffy coats of healthy donors obtained from the Blood Bank Tuebingen.
(§2) CD8 T cells were either directly enriched or PBMCs (peripheral blood mononuclear cells) were isolated first by using standard gradient separation medium (PAA, Colbe, Germany). Isolated CD8 lymphocytes or PBMCs were incubated until use in T-cell medium (TCM) consisting of RPMI-Glutamax (Invitrogen, Karlsruhe, Germany) supplemented with 10% heat inactivated human AB serum (PAN-Biotech, Aidenbach, Germany), 100 U/ml Penicillin/100 μg/ml Streptomycin (Cambrex, Cologne, Germany), 1 mM sodium pyruvate (CC Pro, Oberdorla, Germany), 20 μg/ml Gentamycin (Cambrex). […] Isolation of CD8+ lymphocytes was performed by positive selection using CD8 MicroBeads (Miltenyi Biotec, Bergisch-Gladbach, Germany).
(§3) 800.000 beads/200 μl were coated in 96-well plates in the presence of 600 ng biotin-anti-CD28 plus 200 ng relevant biotin-pMHC (high density beads). […] Half of the medium was then exchanged by fresh TCM supplemented with 80 U/ml IL-2 and incubation was continued for 3-4 days at 37° C. This stimulation cycle was performed for a total of three times.
(§4) In vitro priming of specific multimer+CD8+ lymphocytes was detected by appropriate gating and by comparing to negative control stimulations.

[2] = system: CD8+ T cells; test: In vitro immunogenicity of HLA-A*0201 restricted TUMAPs (aAPC priming of CD8+ T cells, multimer staining); assay type: cell-based, human; details: HLA-A*0201 peptides, CD8+ T cells from HLA-A*2 buffy coats of healthy donors, three stimulation cycles
From the text: as §1, §2, §3, §4

[3] = peptide included in vaccines IMA901 and IMA910, described in other applications by immatics; cited from earlier work

| Sequence | Wells positive/evaluable [%] [1] [%] | Donors positive/evaluable [%] [1] [%] | Donors positive/evaluable [%] [2] [%] | Wells positive/evaluable [%] [2] [%] | in vivo reactions [3] |
| --- | --- | --- | --- | --- | --- |
| QYIDKLNEL (listed as Homo sapiens) [CCDC88A-001] | 0 | 0 |  |  |  |
| RYLEGTSCI (listed as Homo sapiens) [EPPK1-001] | 1 | 17 |  |  |  |
| RYLPKGFLNQF (listed as Homo sapiens) [PTK2-001] | 4 | 17 |  |  |  |
| KYLTVKDYL (listed as Homo sapiens) [ATAD2-002] | 1 | 17 |  |  |  |
| AYLVYTDRL (listed as Homo sapiens) [PPAP2C-001] | 29 | 83 |  |  |  |
| SYNVTSVLF (listed as Homo sapiens) [LCN2-001] | 1 | 17 |  |  |  |
| YVDPVITSI (listed as Homo sapiens) [MET-001] |  |  | 67 | 42 | extremely good in vivo reactions |
| VWSDVTPLTF (listed as Homo sapiens) [MMP11-001] | 11 | 33 |  |  |  |
| VYGIRLEHF (listed as Homo sapiens) [NUF2-001] | 50 | 100 |  |  |  |
| SYLELVKSL (listed as Homo sapiens) [SDHC-001] | 3 | 33 |  |  |  |
| AYAIIKEEL (listed as Homo sapiens) [ATAD2-001] | 3 | 33 |  |  |  |
| HYKPTPLYF (listed as Homo sapiens) [SMC4-001] | 10 | 73 |  |  |  |
| NYLLYVSNF (listed as Homo sapiens) [MST1R-001] | 13 | 50 |  |  |  |
| IYLEVIHNL (listed as Homo sapiens) [DNAJC10-001] | 15 | 50 |  |  |  |
| AYPTVKFYF (listed as Homo sapiens) [DNAJC10-002] | 3 | 33 |  |  |  |
| IYNGKLFDLL (listed as Homo sapiens) [KIF2C-001] | 2 | 17 |  |  |  |
| DYTIGFGKF (listed as Homo sapiens) [ITGB4-001] | 20 | 67 |  |  |  |
| NYEETFPHI (listed as Homo sapiens) [MUC6-001] | 22 | 83 |  |  |  |
| LYPEVFEKF (listed as Homo sapiens) [ATAD2-003] | 0 | 0 |  |  |  |

| Sequence | Wells positive/evaluable [%] [1] [%] | Donors positive/evaluable [%] [1] [%] | Donors positive/evaluable [%] [2] [%] | Wells positive/evaluable [%] [2] [%] | in vivo reactions [3] |
| --- | --- | --- | --- | --- | --- |
| YYYVGFAYL (listed as Homo sapiens) [EIF3L-001] | 29 | 100 |  |  |  |
| SYNPLWLRI (listed as Homo sapiens) [ASPM-002] | 32 | 67 |  |  |  |
| VYISSLALL (listed as Homo sapiens) [PSMD14-001] | 1 | 17 |  |  |  |
| YYKNIGLGF (listed as Homo sapiens) [RPS11-001] | 3 | 17 |  |  |  |
| SYIDVLPEF (listed as Homo sapiens) [MET-006] | 21 | 67 |  |  |  |
| SYIIDPLNL (listed as Homo sapiens) [PROM1-001] | 26 | 83 |  |  |  |
| RYLWATVTI (listed as Homo sapiens) [ASPM-001] | 3 | 17 |  |  |  |
| DYAYLREHF (listed as Homo sapiens) [ZNF598-001] | 17 | 83 |  |  |  |
| YYNAAGFNKL (listed as Homo sapiens) [UQCRB-001] | 24 | 83 |  |  |  |
| VYNPTPNSL (listed as Homo sapiens) [COL12A1-001] | 0 | 0 |  |  |  |
| KIFDEILVNA (listed as Homo sapiens) [TOP-001] |  |  | 40 | 10 |  |
| QYASRFVQL (listed as Homo sapiens) [PLK4-001] | 5 | 60 |  |  |  |
| IYPDASLLI (listed as Homo sapiens) [CEA-010] | 3 | 40 |  |  |  |
| LYQILQGIVF (listed as Homo sapiens) [CDC2-001] | 28 | 83 |  |  |  |
| NYLPFIMEL (listed as Homo sapiens) [UCHL5-001] | 12 | 75 |  |  |  |
| VFDTAIAHLF (listed as Homo sapiens) [SIAH2-001] | 8 | 50 |  |  |  |
| IYAPKLQEF (listed as Homo sapiens) [CCNE2-001] | 0 | 0 |  |  |  |
| SYATLLHVL (listed as Homo sapiens) [GPR39-001] | 6 | 50 |  |  |  |
| VYFSKSEQL (listed as Homo sapiens) [EPHA2-005] | 0 | 0 |  |  |  |

| Sequence | Wells positive/evaluable [%] [1] [%] | Donors positive/evaluable [%] [1] [%] | Donors positive/evaluable [%] [2] [%] | Wells positive/evaluable [%] [2] [%] | in vivo reactions [3] |
| --- | --- | --- | --- | --- | --- |
| RYLPQCSYF (listed as Homo sapiens) [CCND2-001] | 10 | 17 |  |  |  |
| LYLENIDEF (listed as Homo sapiens) [POLD3-001] | 7 | 67 |  |  |  |
| TYGNLLDYL (listed as Homo sapiens) [ABL1-001] | 18 | 83 |  |  |  |
| VYIEKNDKL (listed as Homo sapiens) [ERBB3-001] |  | 83 |  |  |  |
| FYQPKIQQF (listed as Homo sapiens) [FANCI-001] | 1 | 17 |  |  |  |
| SYLQAANAL (listed as Homo sapiens) [COL6A3-001] | 0 | 0 |  |  |  |
| RFLSGIINF (listed as Homo sapiens) [NUF2-002] | 6 | 50 |  |  |  |
| VYLLNSTTL (listed as Homo sapiens) [CLCN3-001] | 6 | 33 |  |  |  |
| VFIFKGNQF (listed as Homo sapiens) [MMP3-001] | 1 | 11 |  |  |  |
| KYNDTFWKEF (listed as Homo sapiens) [HSP90B1-001] | 7 | 50 |  |  |  |
| SYQKVIELF (listed as Homo sapiens) [PBK-001] | 0 | 0 |  |  |  |
| MYMTVSIIDRF (listed as Homo sapiens) [CCNB1-003] | 3 | 33 |  |  |  |
| VYPNWAIGL (listed as Homo sapiens) [SLC6A6-001] | 1 | 17 |  |  |  |
| KIQEILTQV (listed as Homo sapiens) [IGF2BP3-001] |  |  | 50 | 21 |  |
| VYTTSYQQI (listed as Homo sapiens) [NFYB-001] | 7 | 50 |  |  |  |
| IFSKIVSLF (listed as Homo sapiens) [EIF2S3-001] | 1 | 17 |  |  |  |
| FYISPVNKL (listed as Homo sapiens) [AVL9-001] | 31 | 100 |  |  |  |
| VYTTMAEHF (listed as Homo sapiens) [TSPAN1-002] | 1 | 17 |  |  |  |
| VYKVVGNLL (listed as Homo sapiens) [IQGAP3-001] | 24 | 100 |  |  |  |
